According to ChEMBL document CHEMBL3739369, “Identification of Elaiophylin Skeletal Variants from the Indonesian Streptomyces sp. ICBB 9297” (2015):
In brackets after ≈: the same amount, converted by molar mass.

Tests used:
Type in all cases: functional
Bacillus subtilis = assay: Antimicrobial activity against Bacillus subtilis ATCC 6051 for 17 to 48 hrs by MTT assay
Pseudomonas aeruginosa = assay: Antimicrobial activity against Pseudomonas aeruginosa ATCC 9721 for 17 to 48 hrs by MTT assay
Escherichia coli = assay: Antimicrobial activity against Escherichia coli ATCC 11775 for 17 to 48 hrs by MTT assay
[1] = test system: Mycolicibacterium smegmatis; assay: Antimicrobial activity against Mycobacterium smegmatis ATCC 14468 for 17 to 48 hrs by MTT assay
Staphylococcus aureus = assay: Antimicrobial activity against Staphylococcus aureus ATCC 12600 for 17 to 48 hrs by MTT assay

Row | SMILES | MIC (Bacillus subtilis) | MIC (Pseudomonas aeruginosa) | MIC (Escherichia coli) | MIC [1] | MIC (Staphylococcus aureus)
1 | CC1(C)S[C@@H]2[C@H](NC(=O)[C@H](N)c3ccccc3)C(=O)N2[C@H]1C(=O)O [AMPICILLIN] | 0.78 µg/mL (≈ 2.23 µM) | 1.56 µg/mL (≈ 4.46 µM) | 6.25 µg/mL (≈ 17.9 µM) | > 100 µg/mL | 0.78 µg/mL (≈ 2.23 µM)
2 | CC[C@@H]1[C@@H](C)O[C@@](O)([C@@H](C)[C@H](O)[C@H](C)[C@H]2OC(=O)/C=C/C=C/[C@H](C)[C@@H]([C@@H](C)[C@@H](O)[C@H](C)[C@@]3(O)C[C@@H](O[C@H]4C[C@H](O)[C@H](O)[C@H](C)O4)[C@H](CC)[C@@H](C)O3)OC(=O)/C=C/C=C/[C@@H]2C)C[C@H]1O[C@H]1C[C@H](O)[C@H](O)[C@H](C)O1 | > 100 µg/mL | > 100 µg/mL | > 100 µg/mL | > 100 µg/mL | 0.78 µg/mL (≈ 0.761 µM)
3 | CC[C@@H]1[C@@H](C)O[C@@](OC)([C@@H](C)[C@H](O)[C@H](C)[C@H]2OC(=O)/C=C/C=C/[C@H](C)[C@@H]([C@@H](C)[C@@H](O)[C@H](C)[C@@]3(OC)C[C@@H](O[C@H]4C[C@H](O)[C@H](O)[C@H](C)O4)[C@H](CC)[C@@H](C)O3)OC(=O)/C=C/C=C/[C@@H]2C)C[C@H]1O[C@H]1C[C@H](O)[C@H](O)[C@H](C)O1 | > 100 µg/mL | > 100 µg/mL | > 100 µg/mL | > 100 µg/mL | 1.56 µg/mL (≈ 1.48 µM)
4 | CC[C@@H]1[C@@H](C)O[C@@](OC)([C@@H](C)[C@H](O)[C@H](C)[C@H]2OC(=O)/C=C/C=C/[C@H](C)[C@@H]([C@@H](C)[C@@H](O)[C@H](C)[C@@]3(O)C[C@@H](O[C@H]4C[C@H](O)[C@H](O)[C@H](C)O4)[C@H](CC)[C@@H](C)O3)OC(=O)/C=C/C=C/[C@@H]2C)C[C@H]1O[C@H]1C[C@H](O)[C@H](O)[C@H](C)O1 | > 100 µg/mL | > 100 µg/mL | > 100 µg/mL | > 100 µg/mL | 1.56 µg/mL (≈ 1.5 µM)

Next, values leading:

Row | MIC (Bacillus subtilis) | MIC (Pseudomonas aeruginosa) | MIC (Escherichia coli) | MIC [1] | MIC (Staphylococcus aureus) | SMILES
5 | > 100 µg/mL | > 100 µg/mL | > 100 µg/mL | 6.25 µg/mL (≈ 5.86 µM) | 1.56 µg/mL (≈ 1.46 µM) | CC[C@@H]1[C@@H](C)O[C@@](OC)([C@@H](C)[C@H](O)[C@H](C)[C@H]2OC(=O)/C=C/C=C/[C@H](C)[C@@H]([C@@H](C)[C@@H](O)[C@H](C)[C@@]3(OC)C[C@@H](O[C@H]4C[C@H](O)[C@H](O)[C@H](C)O4)[C@H](CC)[C@@H](C)O3)OC(=O)/C(C)=C/C=C/[C@@H]2C)C[C@H]1O[C@H]1C[C@H](O)[C@H](O)[C@H](C)O1
6 |  |  |  | 0.39 µg/mL (≈ 0.723 µM) |  | CN[C@@H]1[C@@H](O[C@H]2O[C@H](CO)[C@@H](N)[C@H](O)[C@H]2O)O[C@H]2C[C@@H](N)[C@@H](O[C@H]3[C@H](O)[C@@H](O)[C@H](N)C[C@@H]3N)O[C@@H]2[C@@H]1O
7 | > 100 µg/mL | > 100 µg/mL | > 100 µg/mL | 6.25 µg/mL (≈ 6.01 µM) | 0.78 µg/mL (≈ 0.751 µM) | CC[C@@H]1[C@@H](C)O[C@@](O)([C@@H](C)[C@H](O)[C@H](C)[C@H]2OC(=O)/C=C/C=C/[C@H](C)[C@@H]([C@@H](C)[C@@H](O)[C@H](C)[C@@]3(O)C[C@@H](O[C@H]4C[C@H](O)[C@H](O)[C@H](C)O4)[C@H](CC)[C@@H](C)O3)OC(=O)/C(C)=C/C=C/[C@@H]2C)C[C@H]1O[C@H]1C[C@H](O)[C@H](O)[C@H](C)O1
8 | > 100 µg/mL | > 100 µg/mL | > 100 µg/mL | > 100 µg/mL | 3.13 µg/mL (≈ 2.89 µM) | CC[C@@H]1[C@@H](C)O[C@@](OC)([C@@H](C)[C@H](O)[C@H](C)[C@H]2OC(=O)/C(C)=C/C=C/[C@H](C)[C@@H]([C@@H](C)[C@@H](O)[C@H](C)[C@@]3(OC)C[C@@H](O[C@H]4C[C@H](O)[C@H](O)[C@H](C)O4)[C@H](CC)[C@@H](C)O3)OC(=O)/C(C)=C/C=C/[C@@H]2C)C[C@H]1O[C@H]1C[C@H](O)[C@H](O)[C@H](C)O1
